Data reported in article PMC7178883, “1,2,4-Triazole-based anticonvulsant agents with additional ROS scavenging activity are effective in a model of pharmacoresistant epilepsy” (Journal of Enzyme Inhibition and Medicinal Chemistry, 2020).
In brackets after ≈: the same amount, converted by molar mass. Like-named read-outs stand apart in the source and are kept apart here.

Columns and labels:
DPPH assay = conditions: methanol, 30 min, 517 nm
Protocol: Free radical scavenging activity of compounds TP-10, TP-315 and TP-427 was evaluated using DPPH assay. Briefly, 25 µl of 0.2 mM of methanolic solution of DPPH ([…]) was mixed with 175 µl of varying concentrations (0.002–4.5 mg/ml) of the studied compounds dissolved in methanol. Reaction mixtures in the 96-well plate were incubated in the dark at room temperature for 30 min. The absorbance was measured at 517 nm against blank (which consists of all reagents without the investigated compounds) using a microplate reader (Epoch, BioTek Instruments, Inc., Winooski, VT, USA). As a reference, the antioxidant activity of vitamin C was evaluated. Each concentration of the compounds was assayed at least six times. The results were expressed as the IC50 (µg/ml) ± SD calculated using the linear regression analysis.

U-87 MG cells [1] = experiment: Cell viability, MTT assay; assay type: cell-based, human; conditions: 10 µg/ml, 24 h
Protocol: Viability of glioblastoma cells U-87 MG (ATCC HTB-14) exposed to a fixed dose of 10 µg/ml of TP-10, TP-315, and TP-427 was measured using MTT assay. Stock solutions of the investigated compounds in DMSO were prepared in the concentration of 50 mg/ml. The cells were cultured at 37 °C in a 5% CO2 atmosphere using Eagle’s Minimum Essential Medium (EMEM) supplemented with 10% foetal bovine serum (FBS), 100 U/ml of penicillin, and […] of streptomycin. Suspension of U-87 MG cells at a density of 1 × 10^5 cells/ml was placed in 96-well plate (100 µl in each well) and incubated for 24 h. On the day of the experiment, the medium was removed from wells and replaced with medium containing a fixed concentration (10 µg/ml) of the respective 1,2,4-triazole derivative. After 24 h of incubation, 15 µl of MTT solution (5 mg/mL in PBS) was added to each well and the microplates were incubated for the next 3 h. Crystals of formazan formed in the metabolically active cells were solubilised with 10% SDS solution (100 µl) during overnight incubation and then the absorbance of dissolved formazan was measured at λ = 570 nm using a microplate reader (Epoch, BioTek Instruments, Inc., Winooski, VT, USA). The viability of cells treated with TP-10, TP-315, or TP-427 was expressed as the % of the viability of control cells (i.e. cells incubated without respective compounds). The experiments were run in triplicate and repeated three times. Sample observations and image capturing were performed using Olympus CKX53 microscope coupled with XM10 digital camera (Olympus).

U-87 MG cells [2] = experiment: Total ROS activity assay (flow cytometry); assay type: cell-based, human; conditions: 10 µg/ml, 24 h; for ROS positive cells: control 90.2%
Protocol: Total ROS activity was measured using Intracellular Total ROS Activity Assay Kit (ImmunoChemistry Technologies, Bloomington, MN, USA). After 24 h of incubation of glioblastoma cells U-87 MG (ATCC, Manassas, VA, USA) with the test compounds in concentration 10 µg/ml, the medium was removed, the cells were washed twice with the cold PBS solution and the Assay Buffer (provided by the kit manufacturer) was added. Then, cells (at a density of 1 × 10^6 cells/ml) were treated with 10 µl of Total ROS green reagent and incubated for 1 h at 37 °C in a CO2 incubator. After incubation, the cells were subjected to a rinsing procedure using the Assay Buffer. Cells were suspended in 500 µl of the Assay Buffer and analysed using a flow cytometer (BD FACSCanto II flow cytometer) and FACSDiva software (both from BD Biosciences Systems, San Jose, CA, USA).

[3] = test system: generalised tonic-clonic seizures (MES test); design: method as in PMID 30594731, PMID 23291122, PMID 25226229, PMID 25090118; conditions: Figure 1, cited from earlier work; for ED50: MES test
[4] = test system: 6 Hz-induced psychomotor seizures; experiment: 6 Hz psychomotor seizure test; assay type: in vivo, mice; conditions: for ED50: Mus musculus, ip; for Protective index (TD50/ED50): TD50 chimney test / ED50 6 Hz test
Protocol: All experiments on animals were performed in accordance with EU Directive 2010/63/EU for animal experiments and complied with the ARRIVE guidelines. Ethics approval for animal experimentations was obtained from the Local Ethics Committee (Lublin, Poland, approval number: 65/2018). Psychomotor seizures in mice were evoked by current (6 Hz, 0.2 ms rectangular pulse width, 32 mA, 3 s duration) generated by an S48 Square Pulse Stimulator and CCU1 Constant Current Unit (Grass Technologies, West Warwick, RI, USA). After application of ophthalmic anaesthetic (0.5% tetracaine hydrochloride) to the mice corneas, the animals underwent corneal stimulation and were placed separately in plexiglas cages (25 × 15 × 10 cm) for the observation of the presence or absence of psychomotor seizures. The animals were administered with increasing doses of TP-10, TP-315, TP-427, and the anticonvulsant activity of each compound was evaluated as the ED50 value (median effective dose of the drug, which protects 50% of mice against convulsions) calculated using the log-probit method of Litchfield and Wilcoxon[18].

[5] = test system: human recombinant butyrylcholinesterase (hrBChE); experiment: BChE inhibition, Ellman method; assay type: biochemical; conditions: 500 µM
Protocol: The inhibition ability of tested compounds against human recombinant acetylcholinesterase (hrAChE) and human recombinant butyrylcholinesterase (hrBChE) was determined by standard Ellman method adapted for 96-well plate. The reaction mixture contained 10 µL of hrAChE (70 ng/mL protein final concentration) or hrBChE (220 ng/mL protein final concentration), 10 µL of tested compound (1, 10, 100, and 500 µM final concentration), 20 µL of 5,5′-dithiobis-2-nitrobenzoic acid (DTNB; 500 µM final concentration), and 60 µL of 20 mM Na-phosphate buffer (pH 7.4). The mixture was pre-incubated at 37 °C for 15 min and subsequently 10 µL substrate acetylthiocholine iodide (ATChI) or butyrylthiochiline iodide (BTChI) was added to the final concentration of 1000 µM[24]. The final volume of reaction mixture was 100 µL. The product formed during the reaction (5-thio-2-nitrobenzoic acid, TNB) was determined by measurement of its absorbance at 436 nm. The catalytic activity was evaluated as amount of product (%) formed by enzyme after 10 min of mixture incubation at 37 °C.

[6] = mice, i.p., 32 mA, pretreatment time 15 min, read-out: ED50 ± SEM
[7] = mice, i.p., 32 mA, pretreatment time 30 min, read-out: ED50 ± SEM
[8] = mice, i.p., 32 mA, pretreatment time 60 min, read-out: ED50 ± SEM
[9] = mice, i.p., 32 mA, pretreatment time 120 min, read-out: ED50 ± SEM
[10] = mice, i.p., pretreatment times 15 to 120 min, read-out: ED50, range over the time-course

Structure (SMILES) | IC50 ± SD, DPPH (DPPH assay) | Relative viability vs. untreated cells (U-87 MG cells [1]) | ROS negative cells (U-87 MG cells [2]) | ROS positive cells (U-87 MG cells [2]) | interaction with VPA [3] | ED50 [3] | ED50 ([4]; 0.5 h, within the first 30 min after i.p. administration, read-out: ED50 (constant activity)) | ED50 [4, 6] | ED50 [4, 7] | ED50 [4, 8] | ED50 [4, 9] | ED50 [4, 10] | Protective index (TD50/ED50) ([4]; pretreatment time 15 min) | Protective index (TD50/ED50) ([4]; pretreatment time 30 min) | Protective index (TD50/ED50) ([4]; pretreatment time 60 min) | Protective index (TD50/ED50) ([4]; pretreatment time 120 min) | Peak of anticonvulsant activity (time after i.p. administration) ([4]; mice, i.p.) | hrBChE activity [5]
Cc1ccc(-n2c(-c3cccc(Cl)c3)n[nH]c2=S)cc1 [TP-10, 5-(3-chlorophenyl)-4-(4-methylphenyl)-2,4-dihydro-3H-1,2,4-triazole-3-thione] | 31.72 ± 1.05 µg/mL (≈ 105 µM) | 99.16 ± 3.92% | 11.5% | 88.5% | synergism with VPA | 57.0 mg/kg | ~60 mg/kg | 62.6 ± 13.2 mg/kg | 61.1 ± 9.7 mg/kg | 170 ± 18.5 mg/kg | 168 ± 17.4 mg/kg | 61.1 to 170 mg/kg | 5.4 | 5.5 | 2.0 | 2.4 | 30 min | 84%
CCCCCCn1c(-c2cccc(Cl)c2)n[nH]c1=S [TP-315, 5-(3-chlorophenyl)-4-hexyl-2,4-dihydro-3H-1,2,4-triazole-3-thione] | 56.87 ± 0.70 µg/mL (≈ 192 µM) | 98.82 ± 2.84% | 14.1% | 85.9% |  | 47.6 mg/kg |  | 61.3 ± 10.1 mg/kg | 59.7 ± 6.8 mg/kg | 68.1 ± 11 mg/kg | 136 ± 18.3 mg/kg | 59.7 to 136 mg/kg | 7.6 | 7.8 | 6.7 | 3.3 | 30 min | 59%
CCCCCCn1c(Cc2cccc(Cl)c2)n[nH]c1=S [TP-427, 5-(3-chlorobenzyl)-4-hexyl-2,4-dihydro-3H-1,2,4-triazole-3-thione] | 110.51 ± 2.12 µg/mL (≈ 357 µM) | 98.53 ± 4.18% | 20.9% | 79.1% | synergism with VPA | 72.1 mg/kg |  | 40.9 ± 6.4 mg/kg | 46.6 ± 8.2 mg/kg | 51.6 ± 6.9 mg/kg | 64.9 ± 5.6 mg/kg | 40.9 to 64.9 mg/kg | >24.4 | >21.5 | 10.5 | 8.5 | 15 min | 78%
